According to PMC6271425, “Synthesis and Sar Study of Diarylpentanoid Analogues as New Anti-Inflammatory Agents” (Molecules, 2014):
“Also recorded” adds a separate entry of the source. Where two headings read alike, the source gives them in different places.

Legend:
[1] = Chemical stability test (UV-visible spectra in phosphate buffer pH 7.4); assay type: physicochemical; settings: 20 μM in phosphate buffer pH 7.4, 1% DMSO, 30 min at 5-min intervals, 25 °C
Protocol: Poor chemical stability of curcumin has been proven as one of the important factors, which cause its low bioavailability. Therefore, in the present study, we further tested the two best compounds (88 and 97) for their chemical stability at physiological pH and compared it to that of curcumin used as reference. The test was carried out by observing the ultraviolet spectral changes of the targeted compounds for 30 minutes with 5-minutes intervals in phosphate buffer (pH 7.4). Figure 8, Figure 9 and Figure 10 depict the ultraviolet changes of curcumin, compound 88 and compound 97, respectively.
Absorbance readings were taken from 300–600 nm using a SpectraMax Plus 384 (Molecular Devices LLC, Sunnyvale, CA, USA). A stock solution of 50 mM curcumin or active compounds 88 and 97 were prepared and diluted by phosphate buffer (pH 7.4), containing 1% dimethyl sulfoxide (DMSO), to a final concentration of 20 μM. The ultraviolet absorption spectra were collected for over 30 min at 5-min intervals at 25 °C. All spectral measurements were carried out in a 1 cm path-length quartz cuvette.

[2] = tested on: NO production in IFN-γ/LPS-stimulated RAW 264.7 macrophages; experiment: NO suppression (Griess nitrite determination) in IFN-γ/LPS-stimulated RAW 264.7 macrophages; assay type: cell-based, murine; settings: for NO Inhibition at 50 µM (%) ± S.E.M: 50 µM test concentration; for inhibition at 50 µM: RAW264.7, 50 µM test concentration, read-out: NO Inhibition at 50 µM (%) ± S.E.M
Protocol: The synthesized compounds were screened for NO suppression activity in IFN-γ/LPS-stimulated RAW 264.7 macrophages at a 50 µM test concentration. […] The IC50 values of the fifty-seven bioactive compounds were determined and compared to that of the positive control, curcumin. An MTT assay was also carried out to confirm that NO inhibition was not due to cytotoxicity. […] The complete bioassay results of all the compounds are provided as Table S2 in Supplementary Data. RAW 264.7 murine macrophages cells obtained from American Type Culture Collection (ATCC, Rockville, MD, USA) were grown in Dulbecco’s Modified Eagle’s Medium (DMEM) containing 10% fetal bovine serum (FBS) and 1% penicillin/streptomycin in a 95% air and 5% CO2 atmosphere at 37 °C. RAW 264.7 cells at 90%–95% confluency were detached and seeded (50,000 cells/well) into a 96-well culture plate with 50 μL of DMEM and incubated for 24 h. The cells were then stimulated in […] of LPS (Escherichia coli, serotype 0111:B4) and 1 ng/ml of interferon-gamma (IFN-γ) in the presence or absence of test compounds for 17 h. Nitrite concentration was then determined by Griess assay by reacting 50 μL of cell culture supernatant with 50 μL of Griess reagent (1% sulfanilamide and 0.1% N-(1-naphthyl)ethylenediamine dihydrochloride in 2.5% phosphoric acid) at room temperature. The optical density was measured at 550 nm after 5 min of incubation at room temperature with a microplate reader.

[3] = Cell cytotoxicity determination (MTT assay); assay type: cell-based, murine; settings: mouse, RAW 264.7 macrophage cells, RAW 264.7 cells, read-out: Cytotoxicity IC50 (µM) ± S.E.M
Protocol: (§1) The synthesized compounds were screened for NO suppression activity in IFN-γ/LPS-stimulated RAW 264.7 macrophages at a 50 µM test concentration. […] The IC50 values of the fifty-seven bioactive compounds were determined and compared to that of the positive control, curcumin. An MTT assay was also carried out to confirm that NO inhibition was not due to cytotoxicity. […] The complete bioassay results of all the compounds are provided as Table S2 in Supplementary Data.
(§2) RAW 264.7 murine macrophages cells obtained from American Type Culture Collection (ATCC, Rockville, MD, USA) were grown in Dulbecco’s Modified Eagle’s Medium (DMEM) containing 10% fetal bovine serum (FBS) and 1% penicillin/streptomycin in a 95% air and 5% CO2 atmosphere at 37 °C.
(§3) Supernatant in each well was removed followed by addition of 100 µL DMEM. Subsequently, 20 µL of 3-(4,5-dimethylthiazol-2-yl)-2,5-diphenyltetrazolium bromide (MTT, 5 mg/mL) was then added and the plate was incubated in a 95% air and 5% CO2 atmosphere at 37 °C for 4 h. The mixture of culture media and MTT in all wells were removed and the purplish formazan crystals formed were dissolved in dimethyl sulfoxide (DMSO) and further incubated for 15 min at room temperature. The color intensity was then measured at 570 nm at room temperature.

RAW 264.7 cells = experiment: Cell cytotoxicity determination (MTT assay); assay type: cell-based, murine; settings: read-out: Cytotoxicity IC50 (µM) ± S.E.M
Protocol: as §1, §2, §3

[4] = IFN-γ/LPS-stimulated RAW 264.7 cells
[5] = Mus musculus, IFN-γ/LPS-stimulated RAW 264.7 cells
[6] = Mus musculus, RAW264.7, IFN-γ/LPS-stimulated RAW 264.7 cells, read-out: NO Inhibition IC50 (µM) ± S.E.M
[7] = Mus musculus, RAW264.7, Table 6, NO suppression IC50 used for QSAR, unit inferred, read-out: IC50
[8] = Mus musculus, RAW264.7, −log IC50 of NO suppression, read-out: pIC50 (converted)

Structure (SMILES)	Chemical stability (ultraviolet spectral changes) [1]	NO Inhibition at 50 µM (%) ± S.E.M [2, 4] [%]	IC50 ([2]; IFN-γ/LPS-stimulated RAW 264.7 cells, read-out: NO Inhibition IC50 (µM) ± S.E.M) [µM]	inhibition at 50 µM [2, 5] [%]	IC50 [2, 6] [µM]	IC50 [3] [µM]	IC50 (RAW 264.7 cells) [µM]	IC50 [2, 7] [µM]	IC50 [2, 8] [µM]
COc1cc(/C=C/C(=O)CC(=O)/C=C/c2ccc(O)c(OC)c2)ccc1O [Curcumin, curcumin, reference compound]	gradually decreased over time	99.3 ± 0.2	14.7 ± 0.2	99.33 ± 0.2	14.7 ± 0.24	28.8 ± 0.77	28.8 ± 0.8		
O=C(/C=C(O)/C=C/c1ccc(O)c(O)c1)c1cc(Cl)ccc1O [Compound 88]	excellent chemical stability; also recorded: no significant changes	99.7 ± 1.2		99.7 ± 1.15	4.89 ± 0.312	56.4 ± 1.19	40.9 ± 1.6	4.9 ± 0.3	4.9
O=C(/C=C(O)/C=C/c1ccc(O)c(O)c1)c1ccccc1O [Compound 97]	excellent chemical stability; also recorded: no significant changes	98.9 ± 1.6		98.9 ± 1.58	9.56 ± 0.468	> 100		9.6 ± 0.5	9.55
